Assay [1] has as its target T1, human B1R receptor (CHO K1 cells stably transfected with the human B1R gene) (Homo sapiens, UniProt P46663).
T1 construct: expressed in transfected cells; host or cells: CHO K1 cells (Chinese hamster ovary), stably transfected
T1 sequence (P46663 1-353): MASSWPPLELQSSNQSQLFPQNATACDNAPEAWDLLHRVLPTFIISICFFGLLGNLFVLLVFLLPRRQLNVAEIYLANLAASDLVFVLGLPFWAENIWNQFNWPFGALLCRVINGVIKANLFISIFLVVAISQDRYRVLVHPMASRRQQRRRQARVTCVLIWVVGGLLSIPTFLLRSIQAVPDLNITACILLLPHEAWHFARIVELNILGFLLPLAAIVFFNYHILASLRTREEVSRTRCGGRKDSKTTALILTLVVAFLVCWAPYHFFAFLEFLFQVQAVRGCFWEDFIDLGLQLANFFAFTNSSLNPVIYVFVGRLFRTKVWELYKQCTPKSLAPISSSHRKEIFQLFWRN
The assay is described as follows: Functional study on the bradykinin receptor 1 (B1R), Ca2+ fluorescence (Fluo-4) FLIPR/Novostar assay, hB1R cells. The format is cell-based. The note with it: CHO-K1, read-out: % inhibition (human B1R) at 10 μM. Put shortly:
(§1)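 Stably transfected CHO K1 cells carrying human or rat B1R were Fluo-4 loaded and Ca2+ fluorescence read by FLIPR or Novostar. Compounds were added first at 10 μM for % activation, then the EC80 agonist was applied after 6-20 min (human: Lys-Des-Arg9-bradykinin; rat: Des-Arg9-bradykinin). % inhibition is relative to maximum achievable inhibition, and IC50 comes from concentration series.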

For assay [2], the target named is T2, B1R receptor of the rat (CHO K1 cells stably transfected with the B1R gene of the rat) (Rattus norvegicus, UniProt P97583).
T2 construct: expressed in transfected cells; host or cells: CHO K1 cells (Chinese hamster ovary), stably transfected
T2 sequence (P97583 1-337): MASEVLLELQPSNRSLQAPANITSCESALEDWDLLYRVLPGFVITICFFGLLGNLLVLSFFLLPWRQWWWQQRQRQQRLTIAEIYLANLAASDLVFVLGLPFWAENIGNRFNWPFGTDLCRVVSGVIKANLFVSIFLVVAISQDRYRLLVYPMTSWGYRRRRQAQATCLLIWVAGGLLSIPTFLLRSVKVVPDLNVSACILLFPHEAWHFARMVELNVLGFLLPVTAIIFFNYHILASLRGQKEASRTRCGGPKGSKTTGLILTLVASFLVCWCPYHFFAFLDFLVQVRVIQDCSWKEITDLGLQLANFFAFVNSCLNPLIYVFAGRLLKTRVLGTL
The assay is described as follows: Functional study on the bradykinin receptor 1 (B1R), Ca2+ fluorescence (Fluo-4) FLIPR/Novostar assay, rB1R cells. In kind it is cell-based. As to conditions: CHO-K1, 10 μM, read-out: % inhibition (rat B1R) at 10 μM. Put shortly: as §1

In patent US8680159B2, “Bradykinin 1 receptor modulating compounds” (Gruenenthal GmbH, priority 2010, dated 2014) one finds inhibition data, which are given here for 10 molecules.

As a reminder, the inhibition is the change of the read-out against control, counted positive when it falls. In the case of `CC(C)CN(C(=O)c1ccccc1Cl)[C@@H]1CCc2ccc(C(=O)N(C)C3CCN(c4ccncc4)CC3)cc21` [Example H-65, (3R)-3-[(2-Chloro-benzoyl)-(2-methyl-propyl)-amino]-N-methyl-N-(1-pyridin-4-yl-piperidin-4-yl)-2,3-dihydro-1H-indene-5-carboxylic acid amide], the inhibition at 10 µM came to 100% in assay [1] and 107% in assay [2].
Taken in the same sequence, the figures for `CN(CCC1CCN(c2ccncc2)CC1)C(=O)c1ccc2c(c1)[C@H](NC(=O)c1ccccc1Cl)CC2` [Example H-66, (3R)-3-[(2-Chloro-benzoyl)amino]-N-methyl-N-[2-(1-pyridin-4-yl-piperidin-4-yl)-ethyl]-2,3-dihydro-1H-indene-5-carboxylic acid amide] were 93% and 99%.
On the same counts, the results for `CN(C(=O)c1ccc2c(c1)[C@H](NC(=O)c1ccccc1C(C)(C)C)CC2)C1CCN(c2ccncc2)CC1` [Example H-67, (3R)-3-[(2-tert-Butyl-benzoyl)amino]-N-methyl-N-(1-pyridin-4-yl-piperidin-4-yl)-2,3-dihydro-1H-indene-5-carboxylic acid amide] are 100% and 102%.
Taken in the same sequence, the figures for `CC(C)CS(=O)(=O)N[C@@H]1CCc2ccc(C(=O)N(C)C3CCN(c4ccncc4)CC3)cc21` [Example H-68, (3R)-N-Methyl-3-[(2-methyl-propylsulfonyl)amino]-N-(1-pyridin-4-yl-piperidin-4-yl)-2,3-dihydro-1H-indene-5-carboxylic acid amide] were 100% and 104%.
For `CN(C(=O)c1ccc2c(c1)[C@H](NC(=O)[C@H]1CCCc3ccccc31)CC2)C1CCN(c2ccncc2)CC1` [Example H-69, (1S)-N-[(1R)-6-[Methyl-(1-pyridin-4-yl-piperidin-4-yl)-carbamoyl]-2,3-dihydro-1H-inden-1-yl]-1,2,3,4-tetrahydro-naphthalene-1-carboxylic acid amide], the inhibition at 10 µM was determined as 100% in assay [1] and 99% in assay [2].
Taken in the same sequence, the figures for `CN(C(=O)c1ccc2c(c1)[C@H](NC(=O)[C@@H]1CCCc3ccccc31)CC2)C1CCN(c2ccncc2)CC1` [Example H-70, N-[(1R)-6-[Methyl-(1-pyridin-4-yl-piperidin-4-yl)-carbamoyl]-2,3-dihydro-1H-inden-1-yl]-1,2,3,4-tetrahydro-naphthalene-1-carboxylic acid amide] were 100% and 96%.
On the same counts, the results for `CN(C(=O)c1ccc2c(c1)[C@H](NC(=O)c1ccccc1)CC2)C1CCN(c2ccncc2)CC1` [Example H-71, (3R)-3-Benzoylamino-N-methyl-N-(1-pyridin-4-yl-piperidin-4-yl)-2,3-dihydro-1H-indene-5-carboxylic acid amide] are 100% and 99%.
Taken in the same sequence, the figures for `CN(C(=O)c1ccc2c(c1)[C@H](NS(=O)(=O)c1ccc(F)cc1)CC2)C1CCN(c2ccncc2)CC1` [Example H-72, (3R)-3-[[(4-Fluorophenyl)sulfonyl]amino]-N-methyl-N-(1-pyridin-4-yl-piperidin-4-yl)-2,3-dihydro-1H-indene-5-carboxylic acid amide] were 99% and 104%.
`CN(C(=O)c1ccc2c(c1)[C@H](NC(=O)c1cccc3ccccc13)CC2)C1CCN(c2ccncc2)CC1` [Example H-73, N-[(1R)-6-[Methyl-(1-pyridin-4-yl-piperidin-4-yl)-carbamoyl]-2,3-dihydro-1H-Inden-1-yl]-naphthalene-1-carboxylic acid amide]: the inhibition at 10 µM is 100% in assay [1] and 104% in assay [2].
On the same counts, the results for `CN(C(=O)c1ccc2c(c1)[C@H](NS(=O)(=O)c1ccccc1)CC2)C1CCN(c2ccncc2)CC1` [Example H-74, (3R)-3-(Benzenesulfonamido)-N-methyl-N-(1-pyridin-4-yl-piperidin-4-yl)-2,3-dihydro-1H-indene-5-carboxylic acid amide] are 100% and 104%.
